Here are results for 4 compounds from patent US12558366B2, “Bacterial DNA gyrase inhibitors and methods of use thereof” (THE FLORIDA INTERNATIONAL UNIVERSITY BOARD OF TRUSTEES, priority 2021, dated 2026).

Values after ≈ are worked out from the molar mass of the structure shown. “Also recorded” adds a separate entry of the source.

Series [1] relates to MRSA (ATCC BAA44). Briefly: microbe, parasite or virus in culture. The series is classed as cell-based, S. aureus. As for the experimental part:
(§1) Antibacterial minimum inhibitory concentrations (MICs) were obtained from three independent experiments using broth microdilution methods in 96-well plates according to Clinical and Laboratory Standards Institute guidelines. Cells were culture from singles colonies in MHIIB medium for 24 h at 37° C. in agitation (200 RPM). The cultures were then diluted using the same media to reach an OD600 of 0.1. Then, 50 μL of the diluted cultures were added to the plates holding 50 μL of serially diluted compounds in MHIIB. The plates were incubated at 37° C. for 20 h. The starting inoculum was fixated to 10^5 colony-forming units per ml.

Series [2] relates to S. aureus (ATCC 14775). Briefly: Minimum inhibitory concentration, S. aureus. The series is classed as cell-based. Here is the method:
as §1

In series [3] the target is human DNA topoisomerase 2α (Homo sapiens, UniProt P11388). Briefly: Human DNA topoisomerase 2α-mediated DNA cleavage assays. The series is classed as biochemical. The conditions noted are these: plasmid pBR322.
Series [4] addresses T1, E. coli DNA gyrase (Escherichia coli, UniProt P0AES4+P0AES6). Briefly: E. coli DNA gyrase inhibition (agarose gel-based and/or SDFQ-based, not specified per value). The series is classed as biochemical. The conditions noted are these: Table 2 values; read-out: IC50 ( ≤15 μM) IC50.
Series [5] has as its system E. coli imp. As to the kind of experiment: microbe, parasite or virus in culture. The class given is cell-based. The conditions noted are these: Escherichia coli, read-out: Minimum Inhibitory Concentration E. coli imp. As for the experimental part:
as §1

The subject of series [6] is E. coli (ATCC 25922). As to the kind of experiment: Minimum inhibitory concentration, E. coli. The conditions noted are these: wildtype strain ATCC 25922. The series is classed as cell-based. As for the experimental part:
as §1

The target of series [7] is T1, E. coli DNA gyrase. As to the kind of experiment: DNA gyrase mediated DNA cleavage assay. The class given is biochemical. The conditions noted are these: plasmid pBR322. As for the experimental part:
250 ng of supercoiled pBR322 plasmid were incubated with 50 nM of E. coli DNA gyrase in reactions containing 35 mM Tris-HCl, 24 mM KCl, 4 mM MgCl2, 2 mM DTT, 0.1 mg/mL BSA, 6.5% glycerol, and 1.75 mM ATP, in presence of 200 μM of compounds, at 37° C. for 15 min. Then, 0.2% (w/v) of SDS and 0.1 mg/mL proteinase K were added, and samples were incubated at 37° C. for 1 h. […] Samples were examined by electrophoresis in 1% w/v agarose gel containing 0.5 μg/mL ethidium bromide and photographed under UV light.

Series [8] has as its target T1, E. coli DNA gyrase. As to the kind of experiment: SDFQ HTS assay of E. coli DNA gyrase (1536-well). The conditions noted are these: read-out: inhibition activities against E. coli DNA gyrase. The series is classed as biochemical. As for the experimental part:
SDFQ HITS primary assay using pAB1_FL905 was performed in 2 μL of (1×DNA gyrase buffer: 20 mM Tris-Acetate pH 7.9, 50 mM KAc, 10 mM MgCl2, 2 mM DTT, 1 mM ATP, 0.1 mg/ml. BSA). […] 3) Spun plate at 800 rpm for 30 seconds. […] SDFQ HTS secondary assay using pAB1_FL924 was performed in 2 μL of (1×DNA gyrase buffer: 20 mM Tris-Acetate pHI 7.9, 50 mM KAc, 10 mM MgCl2, 2 mM DTT, 1 mM ATP, 0.1 mg/mL BSA). […] 3) Spun plate at 800 rpm for 30 seconds.

T1 sequence (P0AES4 whole entry, one chain of several): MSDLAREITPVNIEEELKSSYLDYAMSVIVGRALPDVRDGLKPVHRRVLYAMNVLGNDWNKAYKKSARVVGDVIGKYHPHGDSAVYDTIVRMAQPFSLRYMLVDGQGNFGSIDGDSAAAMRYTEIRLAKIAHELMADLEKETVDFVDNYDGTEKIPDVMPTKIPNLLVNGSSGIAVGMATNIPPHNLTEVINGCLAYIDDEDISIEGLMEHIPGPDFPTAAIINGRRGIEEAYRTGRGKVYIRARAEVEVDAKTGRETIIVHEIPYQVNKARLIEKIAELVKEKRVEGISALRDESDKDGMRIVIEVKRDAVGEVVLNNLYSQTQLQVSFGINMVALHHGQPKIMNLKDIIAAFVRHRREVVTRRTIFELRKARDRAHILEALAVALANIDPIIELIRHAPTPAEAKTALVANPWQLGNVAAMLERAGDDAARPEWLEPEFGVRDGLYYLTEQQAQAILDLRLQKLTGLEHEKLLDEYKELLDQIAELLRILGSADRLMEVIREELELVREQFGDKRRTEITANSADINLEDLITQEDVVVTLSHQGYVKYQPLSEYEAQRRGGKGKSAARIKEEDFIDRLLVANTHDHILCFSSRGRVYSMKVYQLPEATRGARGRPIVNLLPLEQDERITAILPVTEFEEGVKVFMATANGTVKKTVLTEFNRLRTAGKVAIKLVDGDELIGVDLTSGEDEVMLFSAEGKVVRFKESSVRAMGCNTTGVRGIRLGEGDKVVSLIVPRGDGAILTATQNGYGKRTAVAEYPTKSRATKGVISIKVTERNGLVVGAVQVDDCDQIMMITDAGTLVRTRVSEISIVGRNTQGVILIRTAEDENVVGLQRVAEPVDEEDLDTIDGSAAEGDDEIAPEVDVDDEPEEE
Chain of human DNA topoisomerase 2α (P11388 whole entry): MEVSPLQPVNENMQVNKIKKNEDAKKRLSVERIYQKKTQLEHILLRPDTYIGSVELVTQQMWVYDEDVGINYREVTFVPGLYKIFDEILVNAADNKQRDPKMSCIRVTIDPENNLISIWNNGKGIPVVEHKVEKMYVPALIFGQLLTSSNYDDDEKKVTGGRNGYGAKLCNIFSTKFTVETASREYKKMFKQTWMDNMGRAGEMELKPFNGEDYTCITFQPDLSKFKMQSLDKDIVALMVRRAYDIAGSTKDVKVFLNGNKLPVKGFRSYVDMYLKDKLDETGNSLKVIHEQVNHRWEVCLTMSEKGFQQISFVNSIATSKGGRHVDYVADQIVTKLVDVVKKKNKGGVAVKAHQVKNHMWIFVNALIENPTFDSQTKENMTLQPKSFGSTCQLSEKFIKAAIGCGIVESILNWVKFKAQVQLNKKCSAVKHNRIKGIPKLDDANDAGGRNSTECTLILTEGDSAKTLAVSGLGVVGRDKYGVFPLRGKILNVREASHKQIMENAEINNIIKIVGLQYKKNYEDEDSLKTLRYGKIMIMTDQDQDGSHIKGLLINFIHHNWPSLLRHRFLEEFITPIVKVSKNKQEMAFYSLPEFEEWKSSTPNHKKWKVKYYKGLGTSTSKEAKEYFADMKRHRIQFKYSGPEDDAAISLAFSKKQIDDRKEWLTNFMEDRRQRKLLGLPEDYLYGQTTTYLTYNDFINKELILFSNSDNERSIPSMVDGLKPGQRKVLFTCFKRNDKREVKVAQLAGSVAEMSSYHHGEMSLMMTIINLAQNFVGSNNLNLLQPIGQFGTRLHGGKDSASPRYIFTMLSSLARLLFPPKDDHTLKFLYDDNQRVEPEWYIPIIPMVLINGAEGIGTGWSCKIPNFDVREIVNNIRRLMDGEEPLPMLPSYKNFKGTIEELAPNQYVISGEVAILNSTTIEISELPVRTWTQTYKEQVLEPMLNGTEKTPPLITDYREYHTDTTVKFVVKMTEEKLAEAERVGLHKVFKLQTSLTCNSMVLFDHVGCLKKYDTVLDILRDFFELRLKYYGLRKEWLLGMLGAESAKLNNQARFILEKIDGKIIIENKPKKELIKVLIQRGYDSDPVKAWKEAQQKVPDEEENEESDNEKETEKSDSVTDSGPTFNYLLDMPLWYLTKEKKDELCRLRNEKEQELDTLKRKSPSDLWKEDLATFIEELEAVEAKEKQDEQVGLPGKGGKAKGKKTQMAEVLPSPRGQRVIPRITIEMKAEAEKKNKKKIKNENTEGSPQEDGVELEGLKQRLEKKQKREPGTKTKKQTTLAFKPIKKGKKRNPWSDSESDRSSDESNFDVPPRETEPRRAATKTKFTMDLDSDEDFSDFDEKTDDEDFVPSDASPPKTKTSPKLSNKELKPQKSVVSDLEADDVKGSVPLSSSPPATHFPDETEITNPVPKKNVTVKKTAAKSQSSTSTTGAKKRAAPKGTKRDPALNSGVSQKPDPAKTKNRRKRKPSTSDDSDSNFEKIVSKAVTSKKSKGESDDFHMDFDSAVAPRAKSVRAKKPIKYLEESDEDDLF

For the compound `N=C(N)Nc1nc(-c2ccccc2)c2cc(Cl)ccc2n1` [Compound 154, N-(6-chloro-4-phenylquinazolin-2-yl)guanidine], the “growth inhibition of MRSA” value in series [1] is reported as “significant antibacterial activities”. Besides, the “growth inhibition of S. aureus” value in series [2] is reported as “significant antibacterial activities”. For the same compound, the “human topoisomerase 2α-mediated DNA nicks and double-stranded breaks” value in series [3] was “causes the human topoisomerase 2α-mediated DNA nicks and double-stranded breaks”. For the same compound, in series [4], the IC50 is 3.12 µM. Besides, the MIC in series [5] was 50 to 100 µM (≈ 14.9 to 29.8 µg/mL). In addition, the “antibacterial activities against E. coli” value in series [6] is “significant antibacterial activities”. For the same compound, the “DNA gyrase-mediated double stranded DNA breaks / DNA nicking” value in series [7] is “causes the gyrase-mediated DNA double-stranded breaks and single-stranded nicks; also recorded: bacterial DNA gyrase poison”.

For `CCn1cc(C(=O)O)c(=O)c2cc(F)c(N3CCNC(C)C3)c(F)c21` (stereo not shown) [lomefloxacin], the inhibition at 5 µM in series [8] was over 40%.

For `Cc1ccc(C(=O)Nc2ccc(S(=O)(=O)O)c3cc(S(=O)(=O)O)cc(S(=O)(=O)O)c23)cc1NC(=O)c1cccc(NC(=O)Nc2cccc(C(=O)Nc3cc(C(=O)Nc4ccc(S(=O)(=O)O)c5cc(S(=O)(=O)O)cc(S(=O)(=O)O)c45)ccc3C)c2)c1` [suramin], the inhibition at 5 µM in series [8] was over 40%.

`N[C@@H]1[C@H]2CN(c3nc4c(cc3F)c(=O)c(C(=O)O)cn4-c3ccc(F)cc3F)C[C@@H]12` [trovafloxacin]: the inhibition at 5 µM in series [8] is over 40%.
